# Measurements as given in ChEMBL document CHEMBL5523727, “Discovery of KT-413, a Targeted Protein Degrader of IRAK4 and IMiD Substrates Targeting MYD88 Mutant Diffuse Large B-Cell Lymphoma” (J Med Chem, 2024).
# What was measured:
# Cereblon/Ikaros [1] = target: T1, Cereblon/Ikaros (Homo sapiens, UniProt Q96SW2+Q13422); assay: PROTAC activity at CRBN/Ikaros in human OCI-Ly10 cells assessed as induction of Ikaros degradation measured after 24 hrs by MSD assay; format: cell-based
# [2] = target: T2, Protein cereblon/Interleukin-1 receptor-associated kinase 4 (Homo sapiens, UniProt Q9NWZ3+Q96SW2); assay: PROTAC activity at CRBN/IRAK4 in human OCI-Ly10 cells assessed as induction of IRAK4 degradation measured after 24 hrs by MSD assay; format: cell-based
# Target sequence in this assay (Q9NWZ3 whole entry): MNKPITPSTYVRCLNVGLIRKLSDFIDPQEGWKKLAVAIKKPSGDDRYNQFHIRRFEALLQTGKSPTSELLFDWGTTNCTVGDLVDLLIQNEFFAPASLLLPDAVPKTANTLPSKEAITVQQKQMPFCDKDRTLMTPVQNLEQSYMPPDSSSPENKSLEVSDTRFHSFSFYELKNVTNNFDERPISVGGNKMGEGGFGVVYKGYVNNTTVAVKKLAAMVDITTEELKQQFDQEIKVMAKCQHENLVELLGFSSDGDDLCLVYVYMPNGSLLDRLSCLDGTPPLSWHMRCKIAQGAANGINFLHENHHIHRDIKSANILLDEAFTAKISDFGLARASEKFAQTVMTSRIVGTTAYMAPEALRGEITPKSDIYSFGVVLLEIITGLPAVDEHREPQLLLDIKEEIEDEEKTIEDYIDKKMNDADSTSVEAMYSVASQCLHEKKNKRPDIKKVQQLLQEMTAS
# Target sequence in this assay (Q96SW2 whole entry): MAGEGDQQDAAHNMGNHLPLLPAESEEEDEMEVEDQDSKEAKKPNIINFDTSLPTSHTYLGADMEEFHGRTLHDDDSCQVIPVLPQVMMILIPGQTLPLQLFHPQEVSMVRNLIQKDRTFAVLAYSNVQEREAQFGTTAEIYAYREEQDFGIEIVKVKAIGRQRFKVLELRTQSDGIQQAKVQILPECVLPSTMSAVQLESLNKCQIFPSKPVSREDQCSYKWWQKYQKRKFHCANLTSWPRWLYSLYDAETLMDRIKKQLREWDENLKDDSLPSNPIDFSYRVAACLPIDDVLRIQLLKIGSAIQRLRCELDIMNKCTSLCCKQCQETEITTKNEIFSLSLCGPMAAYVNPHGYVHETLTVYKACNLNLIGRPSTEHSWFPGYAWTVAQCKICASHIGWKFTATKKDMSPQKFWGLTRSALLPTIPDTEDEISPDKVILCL
# [3] = Drug exposure in Non human primate administered as iv dose; format: ADME, organism-based; settings: primates, in vivo
# [4] = Half life in human plasma; format: ADME, cell-free
# [5] = Half life in rat plasma; format: ADME, cell-free
# [6] = Drug exposure in rat administered as iv bolus dose; format: ADME, organism-based; settings: in vivo
# [7] = Half life in Non human primate plasma; format: ADME, cell-free; settings: primates
# [8] = Half life in dog plasma; format: ADME, cell-free, Canis lupus familiaris
# Protein cereblon = Protein cereblon (Homo sapiens, UniProt Q96SW2); assay: Binding affinity to CRBN (unknown origin) by HTRF assay
# Sequence of Protein cereblon (Q96SW2 whole entry): as above
# [9] = Clearance in rat at 2 mg/kg, iv by LC-MS/MS analysis; format: ADME, organism-based; settings: in vivo
# [10] = Passive permeability of the compound in wild type MDCK cells across apical to basolateral side at 1 uM measured for 120 mins by LC-MS/MS analysis; format: ADME, cell-based, Canis lupus familiaris; settings: dog, read-out: permeability
# [11] = Volume of distribution at steady state in rat at 2 mg/kg, iv by LC-MS/MS analysis; format: ADME, organism-based; settings: in vivo, read-out: Vdss
# OCI-Ly10 = assay: Antiproliferative activity against human OCI-Ly10 cells measured after 4 days by CellTiter-Glo Luminescent Cell Viability Assay; format: functional, cell-based; settings: Homo sapiens, OCI-Ly10, 96 h
# [12] = target: T2, Protein cereblon/Interleukin-1 receptor-associated kinase 4; assay: PROTAC activity at CRBN/IRAK4 in human OCI-Ly10 cells assessed as induction of IRAK4 degradation measured after 24 hrs by MSD assay relative to control; format: cell-based
# Target sequence in this assay (Q96SW2 whole entry, looked up): as the sequence (Q96SW2 whole entry) above
# Target sequence in this assay (Q9NWZ3 whole entry, looked up): as the sequence (Q9NWZ3 whole entry) above
# [13] = Metabolic stability in rat liver microsomes assessed as intrinsic clearance at 1 uM measured upto 60 mins in presence of NADPH by UPLC/MS-MS analysis; format: ADME, Microsome; settings: read-out: CLH
# [14] = Oral bioavailability in rat at 3 mg/kg by LC-MS/MS analysis; format: ADME, organism-based; settings: in vivo
# [15] = AUC in rat at 3 mg/kg, po by LC-MS/MS analysis; format: ADME, organism-based; settings: in vivo
# [16] = Half life in rat at 2 mg/kg, iv by LC-MS/MS analysis; format: ADME, organism-based; settings: in vivo
# [17] = Metabolic stability in human liver microsomes assessed as intrinsic clearance at 1 uM measured upto 60 mins in presence of NADPH by UPLC/MS-MS analysis; format: ADME, Microsome; settings: read-out: CLH
# [18] = target: Protein cereblon/Interleukin-1 receptor-associated kinase 4 (Homo sapiens, UniProt Q96SW2+Q9NWZ3); assay: Binding affinity to CRBN/IRAK4 […] assessed as dissociation constant by DiscoverX Kd Elect assay
# Sequence of Protein cereblon/Interleukin-1 receptor-associated kinase 4 (Homo sapiens, UniProt Q96SW2+Q9NWZ3) (Q9NWZ3 whole entry): as above
# Sequence of Protein cereblon/Interleukin-1 receptor-associated kinase 4 (Homo sapiens, UniProt Q96SW2+Q9NWZ3) (Q96SW2 whole entry): as the sequence (Q96SW2 whole entry) above
# Cereblon/Ikaros [19] = target: T1, Cereblon/Ikaros; assay: PROTAC activity at CRBN/Ikaros in human OCI-Ly10 cells assessed as induction of Ikaros degradation measured after 6 hrs by MSD assay relative to control; format: cell-based
# T1 sequence (Q96SW2 whole entry): as above
# T1 sequence (Q13422 whole entry): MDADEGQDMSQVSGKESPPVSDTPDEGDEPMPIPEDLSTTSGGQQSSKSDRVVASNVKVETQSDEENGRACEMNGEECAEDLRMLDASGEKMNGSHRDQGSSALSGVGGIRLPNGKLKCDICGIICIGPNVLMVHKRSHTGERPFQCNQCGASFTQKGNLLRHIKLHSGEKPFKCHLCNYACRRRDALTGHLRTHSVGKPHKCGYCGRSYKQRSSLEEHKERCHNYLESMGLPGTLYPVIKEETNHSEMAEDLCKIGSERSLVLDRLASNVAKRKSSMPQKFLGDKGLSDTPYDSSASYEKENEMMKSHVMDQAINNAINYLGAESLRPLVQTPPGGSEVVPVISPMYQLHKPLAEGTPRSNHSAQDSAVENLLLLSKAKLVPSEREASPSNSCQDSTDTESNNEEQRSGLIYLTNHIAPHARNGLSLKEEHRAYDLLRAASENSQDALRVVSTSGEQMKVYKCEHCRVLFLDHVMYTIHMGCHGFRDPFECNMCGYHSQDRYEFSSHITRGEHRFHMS
Compound,DC50 (Cereblon/Ikaros [1]) [nM],DC50 [2] [nM],IC50 (Protein cereblon) [nM],"Papp A→B at 2 h, 1 µM [10] [×10⁻⁶ cm/s]",IC50 (OCI-Ly10) [nM],Emax [12] [%],microsomal CLint at 1 µM [13] [µL/min/mg],microsomal CLint at 1 µM [17] [µL/min/mg],Kd [18] [nM],further results
CC(C)(O)c1cc2nc([C@H]3CC[C@H](CN4CC5(CC(CCNc6cccc7c6C(=O)N([C@@H]6CCC(=O)NC6=O)C7=O)C5)C4)CC3)sc2cc1NC(=O)c1cccc(C(F)(F)F)n1,9,19,110,–,–,–,–,–,–,Drug uptake [3]: 30%; half-life [4]: 175 min; half-life [5]: 143 min; Drug uptake [6]: 48%; half-life [7]: 182 min; half-life [8]: 184 min
COc1cc2nc([C@H]3CC[C@H](CN4CC5(CC(CCNc6cccc7c6C(=O)N(C6CCC(=O)NC6=O)C7=O)C5)C4)CC3)oc2cc1NC(=O)c1cccc(C(F)(F)F)n1 (stereo partly specified),6,190,–,0.34,53,68,2.9,3.9,–,clearance [9]: 9.4 mL/min/kg; Vd [11]: 9.6 L/kg; bioavailability [14]: 10%; AUC [15]: 0.5 µM·h; half-life [16]: 720 min
CN(CCCCc1cccc2c1C(=O)N(C1CCC(=O)NC1=O)C2=O)C[C@H]1CC[C@H](n2cc3cc(NC(=O)c4cccc(C(F)(F)F)n4)c(C(C)(C)O)cc3n2)CC1 (stereo partly specified),> 1000,20,91,1.3,> 1000,–,–,–,0.14,Emax (Cereblon/Ikaros [19]): 40%
CN(CCCOc1cccc2c1CN(C1CCC(=O)NC1=O)C2=O)C[C@H]1CC[C@H](n2cc3cc(NC(=O)c4cccc(C(F)(F)F)n4)c(C(C)(C)O)cc3n2)CC1 (stereo partly specified),> 500,5,–,4.8,235,80,44,19,0.22,–
